Measurements taken from patent publication US10485235B2, “Aryloxypyrimidinyl ethers as herbicides” (FMC Corporation, priority 2015, dated 2019).

Legend:
Type in all cases: in vivo
[1] = system: sedge, umbrella (small-flower umbrella sedge, Cyperus difformis); assay: Test B flooded paddy test, umbrella sedge; conditions: 250 g ai/ha, Flood; visual rating after 13 to 15 days; scale 0 to 100, 0 is no effect, 100 is complete control
Description: (§1) Plant species in the flooded paddy test selected from rice (Oryza sativa), sedge, umbrella (small-flower umbrella sedge, Cyperus difformis), ducksalad (Heteranthera limosa), and barnyardgrass (Echinochloa crus-galli) were grown to the 2-leaf stage for testing. At time of treatment, test pots were flooded to 3 cm above the soil surface, treated by application of test compounds directly to the paddy water, and then maintained at that water depth for the duration of the test. Treated plants and controls were maintained in a greenhouse for 13 to 15 days, after which time all species were compared to controls and visually evaluated. Plant response ratings, summarized in Table B, are based on a scale of 0 to 100 where 0 is no effect and 100 is complete control. A dash (—) response means no test result.

[2] = system: ragweed (common ragweed, Ambrosia elatior); assay: Test A postemergence, ragweed; conditions: postemergence, 0 to 100 scale, 0 is no effect, 100 is complete control, approximately 10 days
From the text: (§2) Seeds of plant species selected from barnyardgrass (Echinochloa crus-galli), kochia (Kochia scoparia), ragweed (common ragweed, Ambrosia elatior), ryegrass, Italian (Italian ryegrass, Lolium multiflorum), foxtail, giant (giant foxtail, Setaria faberii), and pigweed (Amaranthus retroflexus), were planted into a blend of loam soil and sand and treated preemergence with a directed soil spray using test chemicals formulated in a non-phytotoxic solvent mixture which included a surfactant.
(§3) At the same time, plants selected from these weed species and also wheat (Triticum aestivum), corn (Zea mays), blackgrass (Alopecurus myosuroides), and galium (catchweed bedstraw, Galium aparine), were planted in pots containing the same blend of loam soil and sand and treated with postemergence applications of test chemicals formulated in the same manner. Plants ranged in height from 2 to 10 cm and were in the one- to two-leaf stage for the postemergence treatment. Treated plants and untreated controls were maintained in a greenhouse for approximately 10 days, after which time all treated plants were compared to untreated controls and visually evaluated for injury. Plant response ratings, summarized in Table A, are based on a 0 to 100 scale where 0 is no effect and 100 is complete control. A dash (—) response means no test result.

kochia (Kochia scoparia) [3] = assay: Test A postemergence, kochia; conditions: postemergence, 0 to 100 scale, 0 is no effect, 100 is complete control, approximately 10 days
From the text: as §2, §3

[4] = system: barnyardgrass (Echinochloa crus-galli); assay: Test A preemergence, barnyardgrass; conditions: Preemergence, 0 to 100 scale (0 no effect, 100 complete control)
From the text: as §2, §3

[5] = system: ryegrass, Italian (Italian ryegrass, Lolium multiflorum); assay: Test A preemergence, Italian ryegrass; conditions: Preemergence, 0 to 100 scale (0 no effect, 100 complete control)
From the text: as §2, §3

[6] = system: ducksalad (Heteranthera limosa); assay: Test B flooded paddy test, ducksalad; conditions: 250 g ai/ha, Flood; visual rating after 13 to 15 days; scale 0 to 100, 0 is no effect, 100 is complete control
Description: as §1

rice (Oryza sativa) = assay: Test B flooded paddy test, rice; conditions: 250 g ai/ha, Flood; visual rating after 13 to 15 days; scale 0 to 100, 0 is no effect, 100 is complete control
Description: as §1

corn (Zea mays) = assay: Test A postemergence, corn; conditions: postemergence, 0 to 100 scale, 0 is no effect, 100 is complete control, approximately 10 days
From the text: as §2, §3

kochia (Kochia scoparia) [7] = assay: Test A preemergence, kochia; conditions: Preemergence, 0 to 100 scale (0 no effect, 100 complete control)
From the text: as §2, §3

[8] = system: pigweed (Amaranthus retroflexus); assay: Test A preemergence, pigweed; conditions: Preemergence, 0 to 100 scale (0 no effect, 100 complete control)
From the text: as §2, §3

[9] = system: pigweed (Amaranthus retroflexus); assay: Test A postemergence, pigweed; conditions: postemergence, 0 to 100 scale, 0 is no effect, 100 is complete control, approximately 10 days
From the text: as §2, §3

[10] = system: barnyardgrass (Echinochloa crus-galli); assay: Test A postemergence, barnyardgrass; conditions: postemergence, 0 to 100 scale, 0 is no effect, 100 is complete control, approximately 10 days
From the text: as §2, §3

[11] = system: blackgrass (Alopecurus myosuroides); assay: Test A postemergence, blackgrass; conditions: postemergence, 0 to 100 scale, 0 is no effect, 100 is complete control, approximately 10 days
From the text: as §2, §3

[12] = system: barnyardgrass (Echinochloa crus-galli); assay: Test B flooded paddy test, barnyardgrass; conditions: 250 g ai/ha, Flood; visual rating after 13 to 15 days; scale 0 to 100, 0 is no effect, 100 is complete control
Description: as §1

[13] = system: galium (catchweed bedstraw, Galium aparine); assay: Test A postemergence, galium; conditions: postemergence, 0 to 100 scale, 0 is no effect, 100 is complete control, approximately 10 days
From the text: as §2, §3

[14] = system: foxtail, giant (giant foxtail, Setaria faberii); assay: Test A postemergence, giant foxtail; conditions: postemergence, 0 to 100 scale, 0 is no effect, 100 is complete control, approximately 10 days
From the text: as §2, §3

[15] = system: ragweed (common ragweed, Ambrosia elatior); assay: Test A preemergence, ragweed; conditions: Preemergence, 0 to 100 scale (0 no effect, 100 complete control)
From the text: as §2, §3

[16] = system: ryegrass, Italian (Italian ryegrass, Lolium multiflorum); assay: Test A postemergence, Italian ryegrass; conditions: postemergence, 0 to 100 scale, 0 is no effect, 100 is complete control, approximately 10 days
From the text: as §2, §3

[17] = system: foxtail, giant (giant foxtail, Setaria faberii); assay: Test A preemergence, giant foxtail; conditions: Preemergence, 0 to 100 scale (0 no effect, 100 complete control)
From the text: as §2, §3

[18] = system: wheat (Triticum aestivum); assay: Test A postemergence, wheat; conditions: postemergence, 0 to 100 scale, 0 is no effect, 100 is complete control, approximately 10 days
From the text: as §2, §3

Row | SMILES | Plant response rating, Sedge, Umbrella [1] | Plant response rating, Ragweed ([2]; 125 g ai/ha) | Plant response rating, Ragweed ([2]; 500 g ai/ha) | Plant response rating, Kochia (kochia (Kochia scoparia) [3]; 125 g ai/ha) | Plant response rating, Kochia (kochia (Kochia scoparia) [3]; 500 g ai/ha) | Plant response rating, Barnyardgrass ([4]; 125 g ai/ha) | Plant response rating, Barnyardgrass ([4]; 500 g ai/ha) | Plant response rating, Ryegrass, Italian ([5]; 125 g ai/ha) | Plant response rating, Ryegrass, Italian ([5]; 500 g ai/ha) | Plant response rating, Ducksalad [6] | Plant response rating, Rice (rice (Oryza sativa)) | Plant response rating, Corn (corn (Zea mays); 125 g ai/ha) | Plant response rating, Corn (corn (Zea mays); 500 g ai/ha) | Plant response rating, Kochia (kochia (Kochia scoparia) [7]; 125 g ai/ha) | Plant response rating, Kochia (kochia (Kochia scoparia) [7]; 500 g ai/ha) | Plant response rating, Pigweed ([8]; 125 g ai/ha) | Plant response rating, Pigweed ([8]; 500 g ai/ha) | Plant response rating, Pigweed ([9]; 125 g ai/ha) | Plant response rating, Pigweed ([9]; 500 g ai/ha) | Plant response rating, Barnyardgrass ([10]; 125 g ai/ha) | also measured
1 | N#Cc1cccc(Oc2ncc(Cl)cn2)c1OCc1ccccc1Cl [Compound 2] | 0 | 0 | 10 | 30 | 40 | 0 | 10 | 0 | 0 | 0 | 0 | 0 | 30 | 0 | 0 | 0 | 20 | 0 | 10 | 0 | Plant response rating, Barnyardgrass ([10]; 500 g ai/ha): 10; Plant response rating, Blackgrass ([11]; 125 g ai/ha): 0; Plant response rating, Blackgrass ([11]; 500 g ai/ha): 0; Plant response rating, Barnyardgrass [12]: 0; Plant response rating, Galium ([13]; 125 g ai/ha): 20; Plant response rating, Galium ([13]; 500 g ai/ha): 50; Plant response rating, Foxtail, Giant ([14]; 125 g ai/ha): 0; Plant response rating, Foxtail, Giant ([14]; 500 g ai/ha): 10; Plant response rating, Ragweed ([15]; 125 g ai/ha): 0; Plant response rating, Ragweed ([15]; 500 g ai/ha): 0; Plant response rating, Ryegrass, Italian ([16]; 125 g ai/ha): 0; Plant response rating, Ryegrass, Italian ([16]; 500 g ai/ha): 0; Plant response rating, Foxtail, Giant ([17]; 125 g ai/ha): 10; Plant response rating, Foxtail, Giant ([17]; 500 g ai/ha): 70; Plant response rating, Wheat ([18]; 125 g ai/ha): 0; Plant response rating, Wheat ([18]; 500 g ai/ha): 0
2 | N#Cc1cccc(Oc2ncc(Cl)cn2)c1OCc1ccc(Cl)cc1 [Compound 3] | 80 | 60 | 60 | 70 | 90 | 50 | 90 | 20 | 30 | 0 | 0 | 10 | 20 | 80 | 90 | 90 | 90 | 100 | 100 | 50 | Plant response rating, Barnyardgrass ([10]; 500 g ai/ha): 50; Plant response rating, Blackgrass ([11]; 125 g ai/ha): 20; Plant response rating, Blackgrass ([11]; 500 g ai/ha): 50; Plant response rating, Barnyardgrass [12]: 0; Plant response rating, Galium ([13]; 125 g ai/ha): 60; Plant response rating, Galium ([13]; 500 g ai/ha): 90; Plant response rating, Foxtail, Giant ([14]; 125 g ai/ha): 60; Plant response rating, Foxtail, Giant ([14]; 500 g ai/ha): 70; Plant response rating, Ragweed ([15]; 125 g ai/ha): 0; Plant response rating, Ragweed ([15]; 500 g ai/ha): 10; Plant response rating, Ryegrass, Italian ([16]; 125 g ai/ha): 20; Plant response rating, Ryegrass, Italian ([16]; 500 g ai/ha): 30; Plant response rating, Foxtail, Giant ([17]; 125 g ai/ha): 90; Plant response rating, Foxtail, Giant ([17]; 500 g ai/ha): 100; Plant response rating, Wheat ([18]; 125 g ai/ha): 0; Plant response rating, Wheat ([18]; 500 g ai/ha): 10
